In PMC6792352, “Limited Chemical Structural Diversity Found to Modulate Thyroid Hormone Receptor in the Tox21 Chemical Library” (Environmental Health Perspectives, 2019) one finds CC50 data, which are given here for 70 compounds.

Where a name gives a salt, the structure may show the parent alone. A value given as a limit tells only on which side of the number the result lay.

What is called CC50 is the concentration at which the toxic effect on the cells reaches its halfway point.

This data set can be described thus: in vitro. As to conditions: rat, gh3-tre-luc cells.

Compound `Cc1nc(-c2ccc3c(c2)CCN(CCC2CCC(NC(=O)/C=C/c4ccc(F)cc4)CC2)CC3)no1` (centres unmarked) [SB413217A] showed a CC50 at 24 h (AC50 (uM) modified / 1000) of 8.41 µM. `CCCCCC=CCC(=O)OC` [Methyl 3-nonenoate] had a half-maximal cytotoxic concentration (CC50) at 24 h (AC50 (uM) modified / 1000) above 90 µM. On the same count and under the same terms, to `CC(C(=O)O)c1cccc(Oc2ccccc2)c1` (centres unmarked) [Fenoprofen calcium salt dihydrate] belongs above 20 µM; to `NCCNCCO` [N-(Hydroxyethyl)ethylenediamine], above 90 µM; to `C=C(C)C(=O)OCCOC(=O)CC(C)=O` [2-[Methacryloyloxy]ethyl acetoacetate], above 90 µM. As for `OC[C@H]1O[C@@H](n2cnc3c2NC=NC[C@H]3O)C[C@@H]1O` [Pentostatin], the CC50 at 24 h (AC50 (uM) modified / 1000) is above 50 µM. Same read-out and setting: for `C=CC[N+]1([C@H]2C[C@H]3[C@@H]4CC[C@H]5C[C@H](OC(C)=O)[C@@H](N6CCCCC6)C[C@]5(C)[C@H]4CC[C@]3(C)[C@H]2OC(=O)CC)CCCCC1` [Rapacuronium bromide] the value was above 50 µM; for `CCC(N)(CO)CO` [2-Amino-2-ethyl-1,3-propanediol], above 90 µM; for `CC(C)C(C(=O)OC(C#N)c1cccc(Oc2ccccc2)c1)c1ccc(Cl)cc1` (centres unmarked) [Fenvalerate], above 90 µM. The same measure, in the same setting: for `CC(=O)c1ccc(C(C)=O)cc1` [1,1-(1,4-Phenylene)bis-ethanone] the value was above 90 µM. On the same count and under the same terms, for `O=C(O)C1(C(=O)Nc2ccc(Cl)cc2Cl)CC1` [Cyclanilide] the value was above 90 µM. `CC(COc1ccccc1)NN` (centres unmarked) [Phenoxypropazine] displayed a CC50 at 24 h (AC50 (uM) modified / 1000) above 50 µM. Still for that read-out and setting: for `Cc1cnc(C)c(C)n1` [2,3,5-Trimethylpyrazine] the value was above 100 µM; for `Nc1ccc(S(=O)(=O)Nc2ccnn2-c2ccccc2)cc1` [Sulfaphenazole], above 20 µM; for `CCCCCOC(=O)CCCC` [Pentyl valerate], above 90 µM.

`N[C@@H](C(=O)N[C@@H]1C(=O)N2C(C(=O)O)=C(CSc3c[nH]nn3)CS[C@H]12)c1ccc(O)cc1` [Cefatrizine] registered a CC50 at 24 h (AC50 (uM) modified / 1000) above 50 µM.

Where the note is “AC50 (uM) modified / 1000”, `COC(=O)[C@@H]1[C@H]2CC[C@@H](C[C@H]1OC(=O)c1ccccc1)N2C` [Allococaine hydrochloride] showed a CC50 at 24 h above 50 µM. Where the note is “AC50 (uM) modified / 1000, Tox21_110001=Tox21_110905, viability, 1 nM T3 present, 24 h”, `C=C(C)[C@H]1CN[C@H](C(=O)O)[C@H]1CC(=O)O` [Kainic acid] had a CC50 at 24 h above 50 µM. `Cc1oc(C)c(C(=O)Nc2ccccc2)c1C` [Methfuroxam]: under “AC50 (uM) modified / 1000”, the CC50 at 24 h was above 90 µM. The same measure, in the same setting: to `O=P(O)(O)OC(Cn1cncn1)(Cn1cncn1)c1ccc(F)cc1F` [Fosfluconazole] belongs above 50 µM; to `OCCOC[C@H]1O[C@H](OCCO)[C@H](OCCO)[C@@H](OCCO)[C@@H]1OCCO` [Hydroxyethyl starch], above 50 µM; to `Cc1ccc(=O)n(-c2ccccc2)c1` [Pirfenidone], above 50 µM. The same measure, in the same setting: for `CCSCC` [Diethyl sulfide] the value was above 100 µM.

In turn, `O=C(O)c1cc(=O)c2c(OCC(O)COc3cccc4oc(C(=O)O)cc(=O)c34)cccc2o1` [Cromolyn sodium] had a CC50 at 24 h (AC50 (uM) modified / 1000) above 50 µM. For the compound `CCCCOC(=O)c1ccccc1N` [Butyl anthranilate], under “AC50 (uM) modified / 1000, Tox21_110001=Tox21_201173, viability, 1 nM T3 present, 24 h”, the CC50 at 24 h is above 90 µM. On to `COc1ccc(/C=C/S(=O)(=O)NC(=O)c2ccc(C)cc2Cl)cc1` [PharmaGSID_48514], for which, under “AC50 (uM) modified / 1000”, the CC50 at 24 h is above 90 µM. The same measure, in the same setting: for `CC(C)(C)NC[C@H](O)c1ccc(O)cc1Cl` [Meluadrine] the value was above 50 µM; for `c1cncc([C@@H]2CCCCN2)c1` [L-3-(2'-Piperidyl)pyridine], above 90 µM; for `O=C(O)CC(Cl)C(=O)O` (centres unmarked) [Chlorobutanedioic acid], above 90 µM. The same measure, in the same setting: to `NCc1ccccc1CC(=O)N[C@@H]1C(=O)N2C(C(=O)O)=C(CSc3nnnn3CC(=O)O)CS[C@H]12` [Ceforanide] belongs above 20 µM; to `CC(=O)Nc1ccc(O)cc1` [Acetaminophen], above 50 µM. Still for that read-out and setting: for `CC1=CC[C@@]23C[C@@H]1C(C)(C)[C@@H]2CC[C@H]3C` [(-)-alpha-Cedrene] the value was above 90 µM; for `CS(=O)(=O)CCNCc1ccc(-c2ccc3ncnc(Nc4ccc(OCc5cccc(F)c5)c(Cl)c4)c3c2)o1` [Lapatinib], above 50 µM; for `O=c1oc2ccccc2c(O)c1C(CC(O)c1ccc(-c2ccc(Br)cc2)cc1)c1ccccc1` (centres unmarked) [Bromadiolone], above 90 µM.

As to `OCC(Cl)CCl` (centres unmarked) [2,3-Dichloro-1-propanol], where the note is “AC50 (uM) modified / 1000, Tox21_110001=Tox21_200342, viability, 1 nM T3 present, 24 h”, the CC50 at 24 h was above 90 µM. The compound `O[C@H]1[C@H]2[C@H](O)CCCN2C[C@H]1O` [Swainsonine] had a CC50 at 24 h (AC50 (uM) modified / 1000, Tox21_110001=Tox21_112058, viability, 1 nM T3 present, 24 h) above 50 µM. Under “AC50 (uM) modified / 1000”, `COC(=O)[C@H]1[C@H]2C[C@@H]3c4[nH]c5cc(OC)ccc5c4CCN3C[C@H]2C[C@@H](OC(=O)/C=C/c2cc(OC)c(OC)c(OC)c2)[C@@H]1OC` [Rescinnamine] returned a CC50 at 24 h above 20 µM.

For the setting “AC50 (uM) modified / 1000”, `C[N+](C)(CCOc1ccccc1)Cc1cccs1` [Dimethyl(2-phenoxyethyl)-2-thenylammonium iodide] showed a CC50 at 24 h above 50 µM. Still for that read-out and setting: for `OC[C@H]1O[C@@H](O[C@H]2[C@H](O)[C@@H](O)C(O)O[C@@H]2CO)[C@H](O)[C@@H](O)[C@H]1O` (some centres unmarked) [Lactose] the value was above 90 µM; for `CCCC(C)C(=O)OCC` (centres unmarked) [Ethyl 2-methylpentanoate], above 90 µM; for `CC(C)[N+](C)(C)CC(O)COc1cccc2ccccc12` (centres unmarked) [Pranolium chloride], above 50 µM.

Where the note is “AC50 (uM) modified / 1000”, `CN1CCN(C2=Nc3cc(Cl)ccc3Nc3ccccc32)CC1` [Clozapine] had a CC50 at 24 h of 15.9 µM.

As to `COc1ccccc1NC(=O)CC(C)=O` [N-(2-Methoxyphenyl)-3-oxobutanamide], the CC50 at 24 h (AC50 (uM) modified / 1000) was above 90 µM. The same measure, in the same setting: to `CCC(Oc1ccccc1)C(=O)N[C@@H]1C(=O)N2[C@@H]1SC(C)(C)[C@@H]2C(=O)O` (some centres unmarked) [Propicillin] belongs above 50 µM. For `C[C@H]1[C@@H]2Cc3ccc(O)cc3[C@@]1(C)CCN2C` [(+)-Metazocine fumarate (2:1)], where the note is “AC50 (uM) modified / 1000, Tox21_110001=Tox21_112826, viability, 1 nM T3 present, 24 h”, the CC50 at 24 h was above 200 µM. Compound `Oc1ccccc1F` [2-Fluorophenol] came in with a CC50 at 24 h (AC50 (uM) modified / 1000) above 90 µM. Still for that read-out and setting: to `CCOC(=O)c1ccccc1OC` [Ethyl 2-methoxybenzoate] belongs above 90 µM; to `CC(C(O)c1ccccc1)N(C)CCOC(c1ccccc1)c1ccccc1` (centres unmarked) [Difeterol], 15.1 µM. Same read-out and setting: for `O=S(=O)(O)c1cc(Cl)c(Cl)cc1Cl` [2,4,5-Trichlorobenzenesulfonic acid] the value was above 90 µM; for `CCCN(CC)CC1COC2(CCC(C(C)(C)C)CC2)O1` (centres unmarked) [Spiroxamine], above 90 µM. With `O=C1CCCCC1CN1CCCCC1` (centres unmarked) [Pimeclone], the CC50 at 24 h (AC50 (uM) modified / 1000, Tox21_110001=Tox21_111859, viability, 1 nM T3 present, 24 h) was above 50 µM. As for `COc1cc2nc(N3CCN(C(=O)C4COc5ccccc5O4)CC3)nc(N)c2cc1OC` (centres unmarked) [Doxazosin mesylate], where the note is “AC50 (uM) modified / 1000”, half-maximal cytotoxicity (CC50 at 24 h) was put at 25.4 µM.

As for `CC(=O)[C@H]1CC[C@H]2[C@@H]3CC=C4C[C@@H](O)CC[C@]4(C)[C@H]3CC[C@]12C` [Pregnenolone], the cytotoxic concentration (CC50) at 24 h (AC50 (uM) modified / 1000) was above 90 µM.

With `O=P(OCC(Br)CBr)(OCC(Br)CBr)OCC(Br)CBr` (centres unmarked) [Tris(2,3-dibromopropyl) phosphate], the CC50 at 24 h turned out to be 30.4 µM (AC50 (uM) modified / 1000, Tox21_110001=Tox21_201798, viability, 1 nM T3 present, 24 h) and 54.5 µM (AC50 (uM) modified / 1000, Tox21_110001=Tox21_302967, viability, 1 nM T3 present, 24 h).

`CCc1oc2ccccc2c1C(=O)c1cc(I)c(O)c(I)c1` [Benziodarone] returned a CC50 at 24 h (AC50 (uM) modified / 1000) of 24.8 µM. The same measure, in the same setting: to `O=C(Cl)c1cc(Cl)cc(Cl)c1` [3,5-Dichlorobenzoyl chloride] belongs above 90 µM; to `CCCCNc1c(C(=O)OCC)c(C)nc2c1cnn2CC` [Tracazolate hydrochloride], above 50 µM; to `CCCC1CCOC(C)S1` (centres unmarked) [2-Methyl-4-propyl-1,3-oxathiane], above 90 µM. Same read-out and setting: for `O=C(O)Cn1c(C(=O)Nc2nc(-c3ccccc3Cl)cs2)cc2ccccc21` [Lintitript] the value was above 50 µM. For `O=C(CBr)c1ccccc1` [2-Bromoacetophenone], the CC50 at 24 h (AC50 (uM) modified / 1000, Tox21_110001=Tox21_202941, viability, 1 nM T3 present, 24 h) is above 90 µM. Take `NC(=O)C(Cl)(Cl)Cl` [2,2,2-Trichloroacetamide]: the CC50 at 24 h (AC50 (uM) modified / 1000) was above 90 µM.

Take `CCCC[N+]1(C)[C@@H]2CC(OC(=O)[C@H](CO)c3ccccc3)C[C@H]1[C@@H]1O[C@@H]12` (some centres unmarked) [Butylscopolammonium bromide]: the CC50 at 24 h (AC50 (uM) modified / 1000) is above 50 µM. Turning to `Cn1sccc1=O` [2-Methyl-4-isothiazolin-3-one hydrochloride], the CC50 at 24 h (AC50 (uM) modified / 1000) is 30.8 µM. The compound `CCN(C(=O)c1cc(C)cc(OC[C@H](C)Nc2ccncc2)c1)C(C)C` [GW473178E methyl benzene sulphonic acid] gave a CC50 at 24 h (AC50 (uM) modified / 1000) above 60 µM. Same read-out and setting: for `C[N+](C)(C)CC1CO1` (centres unmarked) [Glycidyl trimethylammonium chloride] the value was above 90 µM; for `CCCCOCC(C)OCC(C)O` (centres unmarked) [1-(2-Butoxy-1-methylethoxy)propan-2-ol], above 90 µM. On to `N#Cc1ccc(CC(=O)c2cccc(C(F)(F)F)c2)cc1` [4-{2-Oxo-2-[3-(trifluoromethyl)phenyl]ethyl}benzonitrile], for which the CC50 at 24 h (AC50 (uM) modified / 1000) was above 90 µM.

For the setting “AC50 (uM) modified / 1000”, `ClCCCl` [1,2-Dichloroethane] displayed a CC50 at 24 h above 90 µM.

In turn, `CCCCCCCCC1CCC(=O)O1` (centres unmarked) [gamma-Dodecalactone] gave a 50% cytotoxic concentration (CC50) at 24 h (AC50 (uM) modified / 1000) above 90 µM.

`CC(C)=CCC/C(C)=C/C(=O)O` [Geranic acid] came in with a CC50 at 24 h (AC50 (uM) modified / 1000) above 90 µM.
